From US5124332A, “Substituted indoles as central nervous system agents” (Warner-Lambert Company, priority 1991, dated 1992)
Counter-ions that a name gives are not always drawn. Like-named read-outs stand apart in the source and are kept apart here.

How the values were obtained:
[1] = system: locomotor activity in mice; test: Inhibition of locomotor activity in mice; type: in vivo; conditions: Mus musculus, read-out: Inhibition of Locomotor Activity in Mice ED50
Protocol: (§1) The compounds of Formula I are valuable dopaminergic agents. […] Thus, the compounds of Formula I were tested for their ability to inhibit locomotor activity in mice according to the assay described by J. R. McLean, et al, Pharmacology, Biochemistry and Behavior, Volume 8, pages 97-99 (1978); and for their ability to inhibit [^3 H]-spiroperidol binding in a receptor assay described by D. Grigoriadis and P. Seman, Journal of Neurochemistry, Volume 44, pages 1925-1935 (1985). The above test methods are incorporated herein by reference. The data in the table show the dopaminergic activity of representative compounds of Formula I.

[2] = target: T1, [^3 H]-spiroperidol binding (Homo sapiens, UniProt P14416); test: Inhibition of [^3 H]-spiroperidol binding in a receptor assay
T1 construct: from tissue; own knowledge of the cited 1985 method, which predates the cloning of D2)
T1 sequence (P14416 whole entry): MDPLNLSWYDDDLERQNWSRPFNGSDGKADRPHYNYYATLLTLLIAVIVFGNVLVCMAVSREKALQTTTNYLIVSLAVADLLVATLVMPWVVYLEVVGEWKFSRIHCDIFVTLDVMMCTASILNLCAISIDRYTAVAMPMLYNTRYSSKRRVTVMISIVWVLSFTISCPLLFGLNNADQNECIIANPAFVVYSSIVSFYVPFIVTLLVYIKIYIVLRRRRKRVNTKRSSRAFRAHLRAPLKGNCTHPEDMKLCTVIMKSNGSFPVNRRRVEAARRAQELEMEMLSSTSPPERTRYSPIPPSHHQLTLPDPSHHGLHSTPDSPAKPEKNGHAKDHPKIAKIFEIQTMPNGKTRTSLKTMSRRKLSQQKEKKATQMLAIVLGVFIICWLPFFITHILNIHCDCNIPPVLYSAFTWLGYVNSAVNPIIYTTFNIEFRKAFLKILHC
Protocol: as §1

[3] = [^3 H]spiroperidol, receptor assay, read-out: Inhibition of [^3 H]Spiroperidol Binding IC50

SMILES	IC50 [2, 3] [nM]	ED50 ([1]; mice, IP) [mg/kg]	ED50 ([1]; ip) [mg/kg]	IC50 [2] [nM]
c1cnc(N2CCN(CC[C@H]3CC[C@H](c4c[nH]c5ccccc54)CC3)CC2)nc1 [Example 3, Trans 3-[4-[2-[4-(2-pyrimidinyl)-1-piperazinyl]ethyl]cyclohexyl]-1H-indole,hydrochloride]	224	3.3	–	–
C1=C(c2ccccc2)CCN(CC[C@H]2CC[C@H](c3c[nH]c4ccccc43)CC2)C1 [Example 5, Trans 3-[4-[2-(3,6-dihydro-4-phenyl-1(2H)-pyridinyl)ethyl]cyclohexyl]-1H-indole]	–	–	9	12.1
C1=C(c2ccccc2)CCN(CC[C@H]2CC[C@@H](c3c[nH]c4ccccc43)CC2)C1 [Example 6, Cis 3-[4-[2-(3,6-dihydro-4-phenyl-1(2H)-pyridinyl)ethyl]cyclohexyl]-1H-indole]	–	–	16.6	39.3
C1=C(c2cccs2)CCN(CC[C@H]2CC[C@H](c3c[nH]c4ccccc43)CC2)C1 [Example 7, Trans 3-[4-[2-(3,6-dihydro-4-(2-thienyl)-1(2H)-pyridinyl)ethyl]cyclohexyl]-1H-indole]	878	–	11.7	–

More lines, main results first:

IC50 [2, 3] [nM]	SMILES	ED50 ([1]; mice, IP) [mg/kg]	ED50 ([1]; ip) [mg/kg]	IC50 [2] [nM]
69.8	c1ccc(N2CCN(CC[C@H]3CC[C@H](c4c[nH]c5ccccc54)CC3)CC2)nc1 [Example 1, trans 3-[4-[2-[4-(2-pyridinyl)-1-piperazinyl]ethyl]cyclohexyl]-1H-indole]	1.4	–	–
193	c1ccc(N2CCN(CC[C@H]3CC[C@@H](c4c[nH]c5ccccc54)CC3)CC2)nc1 [Example 2, Cis 3-[4-[2-[4-(2-pyridinyl)-1-piperazinyl]ethyl]cyclohexyl]-1H-indole]	4.7	–	–
349	c1cnc(N2CCN(CC[C@H]3CC[C@@H](c4c[nH]c5ccccc54)CC3)CC2)nc1 [Example 4, Cis 3-[4-[2-[4-(2-pyrimidinyl)-1-piperazinyl]ethyl]cyclohexyl]-1H-indole, hydrochloride]	8.6	–	–
270	C1=C(c2c[nH]c3ccccc23)CCC(CCN2CCN(c3ccccn3)CC2)C1 (stereo not shown) [Example 16]	6.25	–	–
